Tests used:
[1] = target: T1, Upstate Src (p60^c-src, partially purified) (Homo sapiens, UniProt P12931); experiment: SRC-Inhibitor-Assay (time-resolved fluorescence), Src; type: biochemical; details: ATP 5 μM, peptide 10 μM, enzyme 2.5 U/mL, 15 min pre-incubation at 15° C.
T1 construct: purchased UBI, Upstate Biotech, Inc
Text: (§1) The activity of the compounds according to this invention as inhibitors for the src-family tyrosine kinases was shown by using the following assay.
(§2) SRC-Inhibitor-Assay Parameters:
(§3) Eu-labelled phosphotyrosine antibody:—for Lck Cisbio Mab PT66-K, • for Src EG&G Wallac PT66 Eu-W1024 (all commercially available).
(§4) Peptides: Ro: NH2-A-E-E-E-I-Y-G-E-F-E-A-K-K-K-K-CONH2, and • Ja133-Ro: Ja133-G-Aminocaprylic acid-A-E-E-E-I-Y-G-E-F-E-A-K-K-K-K-CONH2, wherein Ja133 is LightCycler-Red 640-N-hydroxy succinimide ester; • whereby both peptides were synthesized by an optimized solid phase peptide synthesis protocol (Merrifield, Fed. Proc. Fed. Amer. Soc. Exp. Biol. 21 (1962) 412) on a Zinsser SMP350 peptide synthesizer. Shortly, the peptide was assembled on 160 mg (22.8 μmol scale) of a Rink-Linker modified polystyrene solid phase by repeatedly conjugating an twenty fold excess of amino acids each protected by temporary piperidine labile Fmoc- and permanent acid labile tert-Bu-, BOC- and O-tert-Bu-groups depending on the side chain function. The substrate sequence AEEEIYGEFEAKKKK was N-terminal additionally mounted with the spacer amino acids Aminocaprylic acid and Glycin. After cleavage of the N-terminal temporary protecting group the still attached and protected peptide was labeled with a 1.5 fold amount of LightCycler-Red 640-N-hydroxy succinimide ester (purchased from Roche Diagnostics GmbH) and triethylamine. After 3 hrs. the resin was washed with Dimethylformamide and Isopropanol until the eluates of the blue resin got colourless. […] The substrate was finally isolated by a preparative reverse phase HPLC purification. The purification yielded 12.2 mg RP-HPLC single peak pure blue material (lyophilisate). The identity was proven by MALDI mass spectroscopy [2720.0].
(§5) Enzymes: Upstate Lck (p56^lck, active), Upstate Src (p60^c-src, partially purified) were purchased from UBI, Upstate Biotech, Inc.
(§6) Time-resolved Fluorescence Assay: Reader: Perkin Elmer, Wallac Viktor 1420-040 multilabel counter; Liquid handling system: Beckman Coulter, Biomek 2000.
(§7) ATP, Tween™ 20, 4-(2-hydroxyethyl)-l-piperazineethanesulfonic acid (HEPES) were purchased from Roche Molecular Biochemicals, MgCl2 and MnCl2 were purchased from Merck Eurolab, Tris(2-carboxyethyl)phosphine hydrochloride (TCEP) was purchased from Pierce, 384 Well low volume fluorescence plates was purchased from Falcon.
(§8) At first the enzyme is pre-incubated for 15 min. at 15° C. in aqueous solution with corresponding amounts of inhibitors according to this invention. Then the phosphorylation reaction is started by adding a reaction mixture, containing ATP, Peptide and PT66, and subsequent shaking. The proceeding of this reaction is immediately monitored using time resolved fluorescence spectroscopy in a suitable well plate reader.
(§9) The IC50-values can be obtained from the reaction rates by using a non-linear curve fit (XLfit software (ID Business Solution Ltd., Guilford, Surrey, UK))

[2] = target: T2, Upstate Lck (p56^lck, active) (Homo sapiens, UniProt P06239); experiment: SRC-Inhibitor-Assay (time-resolved fluorescence), Lck; type: biochemical; details: ATP 5 μM, peptide 10 μM, enzyme 2.5 U/mL, 15 min pre-incubation at 15° C.
T2 construct: purchased UBI, Upstate Biotech, Inc
T2 sequence (P06239 whole entry): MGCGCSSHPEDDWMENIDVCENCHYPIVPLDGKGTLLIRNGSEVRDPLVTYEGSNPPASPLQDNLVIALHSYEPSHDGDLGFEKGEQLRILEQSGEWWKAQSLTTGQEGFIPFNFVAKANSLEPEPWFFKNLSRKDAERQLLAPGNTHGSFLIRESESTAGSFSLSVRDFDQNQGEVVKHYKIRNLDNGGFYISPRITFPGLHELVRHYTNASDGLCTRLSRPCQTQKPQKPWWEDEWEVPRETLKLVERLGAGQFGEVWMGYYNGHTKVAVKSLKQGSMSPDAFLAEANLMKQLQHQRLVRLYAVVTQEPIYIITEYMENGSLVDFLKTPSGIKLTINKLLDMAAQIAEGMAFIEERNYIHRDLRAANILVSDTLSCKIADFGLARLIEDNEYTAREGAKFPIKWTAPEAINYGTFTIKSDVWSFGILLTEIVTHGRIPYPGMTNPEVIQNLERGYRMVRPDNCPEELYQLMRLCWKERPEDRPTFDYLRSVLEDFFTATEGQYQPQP
Text: as §1, §2, §3, §4, §5, §6, §7, §8, §9

T1 sequence (P12931 whole entry): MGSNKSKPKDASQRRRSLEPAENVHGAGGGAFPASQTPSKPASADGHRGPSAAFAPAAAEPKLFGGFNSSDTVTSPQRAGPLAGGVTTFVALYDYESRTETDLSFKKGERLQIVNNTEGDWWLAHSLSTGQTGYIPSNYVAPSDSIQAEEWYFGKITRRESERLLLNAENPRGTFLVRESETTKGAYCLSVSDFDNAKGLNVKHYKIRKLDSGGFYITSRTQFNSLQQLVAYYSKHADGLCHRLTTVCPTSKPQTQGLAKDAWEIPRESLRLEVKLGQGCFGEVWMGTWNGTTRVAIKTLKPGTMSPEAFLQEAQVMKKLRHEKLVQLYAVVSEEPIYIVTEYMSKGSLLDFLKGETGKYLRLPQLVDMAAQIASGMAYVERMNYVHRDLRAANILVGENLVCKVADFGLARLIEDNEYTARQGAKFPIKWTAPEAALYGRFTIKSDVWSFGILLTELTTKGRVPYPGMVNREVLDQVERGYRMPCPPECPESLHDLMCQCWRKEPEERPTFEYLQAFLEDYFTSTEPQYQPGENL

Row | SMILES | IC50 [1] | IC50 [2]
1 | CC(=O)Nc1ccc(-c2cc3cc(NCc4ccccc4C)cnc3[nH]2)cc1 [Example 2-8, N-{4-[5-(2-Methyl-benzylamino)-1H-pyrrolo[2,3-b]pyridin-2-yl]-phenyl}-acetamide] | 10 to 500 nM | 100 to 1000 nM
2 | COCCOc1cccc(-c2cc3cc(NCc4ccccc4C)cnc3[nH]2)c1 [Example 2-2, {2-[3-(2-Methoxy-ethoxy)-phenyl]-1H-pyrrolo[2,3-b]pyridin-5-yl}-(2-methyl-benzyl)-amine] | 131 nM | 757 nM
3 | CC(Nc1cnc2[nH]c(-c3ccccc3)nc2c1)c1ccccc1 (stereo not drawn) [Example 1-1, (1-Phenyl-ethyl)-(2-phenyl-3H-imidazo[4,5-b]pyridin-6-yl)-amine] | 500 to 1500 nM | 1000 to 5000 nM
4 | CC(=O)Nc1cccc(-c2cc3cc(NCc4ccccc4)cnc3[nH]2)c1 [Example 2-5, N-[3-(5-Benzylamino-1H-pyrrolo[2,3-b]pyridin-2-yl)-phenyl]-acetamide] | 10 to 500 nM | 100 to 1000 nM
5 | CC(=O)Nc1cccc(-c2cc3cc(NCc4ccccc4C)cnc3[nH]2)c1 [Example 2-6, N-{3-[5-(2-Methyl-benzylamino)-1H-pyrrolo[2,3-b]pyridin-2-yl]-phenyl}-acetamide] | 31 nM | 223 nM
6 | CC(=O)Nc1ccc(-c2cc3cc(NCc4ccccc4)cnc3[nH]2)cc1 [Example 2-7, N-[4-(5-Benzylamino-1H-pyrrolo[2,3-b]pyridin-2-yl)-phenyl]-acetamide] | 10 to 500 nM | 100 to 1000 nM
7 | Cc1ccccc1CNc1cnc2[nH]c(-c3ccccc3)cc2c1 [Example 2-4, (2-Methyl-benzyl)-(2-phenyl-1H-pyrrolo[2,3-b]pyridin-5-yl)-amine] | 10 to 500 nM | 100 to 1000 nM
8 | c1ccc(CNc2cnc3[nH]c(-c4ccccc4)cc3c2)cc1 [Example 2-3, Benzyl-(2-phenyl-1H-pyrrolo[2,3-b]pyridin-5-yl)-amine] | 10 to 500 nM | 1000 to 5000 nM
9 | COCCOc1cccc(-c2cc3cc(NCc4ccccc4)cnc3[nH]2)c1 [Example 2-1, Benzyl-{2-[3-(2-methoxy-ethoxy)-phenyl]-1H-pyrrolo[2,3-b]pyridin-5-yl}-amine] | 500 to 1500 nM | 100 to 1000 nM

From US7776878B2, “Heterocyclic benzylamino derivatives, their manufacture and use as pharmaceutical agents” (Hoffmann-La Roche Inc., priority 2005, dated 2010)
